Laboratory results published in ChEMBL document CHEMBL1201862, “PubChem BioAssay data set” (2004).
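Five concentrations, 48 hours, 96-well plates. GI50 marks 50% less growth.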 Calls of active or inactive are those of the source. Rule as the data show it: active = GI50 up to about 1.1 µM and inactive = higher.

Key:
Assay in all cases: inhibition of tumour cell growth, NCI panel, 48 h
786-0 = system: 786-0
A498 = system: A498
A549 = system: A549
ACHN = system: ACHN
BT-549 = system: BT-549
CAKI-1 = system: CAKI-1
COLO 205 = system: COLO 205
DU-145 = system: DU-145
EKVX = system: EKVX
HCT-116 = system: HCT-116
HCT-15 = system: HCT-15
HL-60 = system: HL-60
HOP-62 = system: HOP-62
HOP-92 = system: HOP-92
HT-29 = system: HT-29
Hs-578T = system: Hs-578T
IGROV-1 = system: IGROV-1
K562 = system: K562
KM12 = system: KM12
LOX IMVI = system: LOX IMVI
M14 = system: M14
MCF7 = system: MCF7
MDA-MB-231 = system: MDA-MB-231
MDA-MB-435 = system: MDA-MB-435
MDA-N = system: MDA-N
MOLT-4 = system: MOLT-4
Malme-3M = system: Malme-3M
NCI-H226 = system: NCI-H226
NCI-H23 = system: NCI-H23
NCI-H522 = system: NCI-H522
NCI/ADR-RES = system: NCI/ADR-RES
OVCAR-3 = system: OVCAR-3
OVCAR-4 = system: OVCAR-4
OVCAR-5 = system: OVCAR-5
OVCAR-8 = system: OVCAR-8
PC-3 = system: PC-3
RPMI-8226 = system: RPMI-8226
RXF 393 = system: RXF 393
SF-268 = system: SF-268
SF-295 = system: SF-295
SF-539 = system: SF-539
SK-MEL-28 = system: SK-MEL-28
SK-MEL-2 = system: SK-MEL-2
SK-MEL-5 = system: SK-MEL-5
SK-OV-3 = system: SK-OV-3
SN12C = system: SN12C
SNB-19 = system: SNB-19
SNB-75 = system: SNB-75
SR = system: SR
SW-620 = system: SW-620
T47D = system: T47D
TK-10 = system: TK-10
U-251 = system: U-251
UACC-257 = system: UACC-257
UACC-62 = system: UACC-62
UO-31 = system: UO-31
CCRF-CEM = system: CCRF-CEM
HCC 2998 = system: HCC 2998
NCI-H460 = system: NCI-H460

Measured: GI50

COc1cc(C(c2c(O)c3ccccc3oc2=O)c2c(O)c3ccccc3oc2=O)cc(Br)c1O
inactive: 786-0 17.7 µM | A498 15.9 µM | A549 18.4 µM | ACHN 17.4 µM | BT-549 17 µM | CAKI-1 15.7 µM | COLO 205 18.2 µM | DU-145 17.4 µM | EKVX 18.8 µM | HCT-116 17.5 µM | HL-60 27.7 µM | HOP-62 18.6 µM | HOP-92 12.5 µM | HT-29 20 µM | Hs-578T 20.2 µM | IGROV-1 15.6 µM | K562 30.3 µM | KM12 17.5 µM | LOX IMVI 16 µM | M14 16.8 µM | MCF7 16.2 µM | MDA-MB-231 17.8 µM | MDA-MB-435 20.3 µM | MDA-N 18.4 µM | MOLT-4 20.1 µM | Malme-3M 16.8 µM | NCI-H226 21.5 µM | NCI-H23 22.2 µM | NCI-H522 12.9 µM | NCI/ADR-RES 23 µM | OVCAR-3 15.9 µM | OVCAR-4 15.4 µM | OVCAR-5 23.5 µM | OVCAR-8 17.3 µM | PC-3 19.1 µM | RPMI-8226 19.8 µM | RXF 393 17.4 µM | SF-268 13.8 µM | SF-295 21.1 µM | SF-539 15.6 µM | SK-MEL-28 21.6 µM | SK-MEL-2 23.8 µM | SK-MEL-5 16.3 µM | SK-OV-3 20.1 µM | SN12C 15.8 µM | SNB-19 18.6 µM | SNB-75 18.8 µM | SR 14 µM | SW-620 20.6 µM | T47D 22.8 µM | TK-10 16.1 µM | U-251 16.8 µM | UACC-257 17.3 µM | UACC-62 16 µM | UO-31 16.4 µM
17.7 µM: HCT-15

COc1cc(/C=C/c2nc(NC(=S)Nc3ccccc3)nnc2C)cc(OC)c1OC
inactive: 786-0 28.3 µM | A498 27.8 µM | A549 23.8 µM | ACHN 18.2 µM | BT-549 25.2 µM | CAKI-1 29.1 µM | CCRF-CEM 13.5 µM | COLO 205 15.5 µM | DU-145 34 µM | EKVX 22.4 µM | HCC 2998 12.6 µM | HCT-116 24.7 µM | HL-60 8.3 µM | HOP-62 35.2 µM | HOP-92 53.7 µM | HT-29 14.7 µM | Hs-578T 17.6 µM | IGROV-1 27.2 µM | K562 29.9 µM | KM12 14.5 µM | LOX IMVI 37.2 µM | M14 21.4 µM | MCF7 13.9 µM | MDA-MB-231 33 µM | MDA-MB-435 38.4 µM | MDA-N 48.2 µM | MOLT-4 25 µM | Malme-3M 23.9 µM | NCI-H226 23.7 µM | NCI-H23 17.3 µM | NCI-H460 15.7 µM | NCI-H522 11.1 µM | NCI/ADR-RES 28.4 µM | OVCAR-4 18.7 µM | OVCAR-5 31.6 µM | OVCAR-8 20.8 µM | PC-3 14.3 µM | RPMI-8226 22.7 µM | RXF 393 23.6 µM | SF-268 27.4 µM | SF-295 50.1 µM | SK-MEL-28 > 100 µM | SK-MEL-2 14.5 µM | SK-MEL-5 14.7 µM | SK-OV-3 29.6 µM | SN12C 39.1 µM | SNB-19 32.5 µM | SR 12.4 µM | SW-620 38.1 µM | T47D 19.7 µM | TK-10 41.4 µM | U-251 31 µM | UACC-257 30.3 µM | UACC-62 14.1 µM | UO-31 4.36 µM
11.2 µM: HCT-15

CCOC(=O)c1c(CN2CCCC2)n(-c2ccccc2)c2cc(Br)c(OC)cc12
active: RXF 393 0.574 µM
14.4 µM: HCT-15
inactive: 786-0 15 µM | A498 4.78 µM | A549 7.35 µM | ACHN 11.1 µM | BT-549 18.7 µM | CAKI-1 41.6 µM | CCRF-CEM 8.87 µM | COLO 205 11.8 µM | DU-145 17.7 µM | EKVX 20 µM | HCT-116 11.2 µM | HL-60 12.5 µM | HOP-62 8.75 µM | HOP-92 10.6 µM | HT-29 7.57 µM | Hs-578T 29.9 µM | IGROV-1 16.5 µM | K562 16.2 µM | LOX IMVI 13.8 µM | M14 16.3 µM | MCF7 6.87 µM | MDA-MB-231 17.2 µM | MDA-MB-435 26.9 µM | MDA-N 29.3 µM | MOLT-4 4.41 µM | Malme-3M 16.7 µM | NCI-H226 13.3 µM | NCI-H23 20.5 µM | NCI-H460 6.89 µM | NCI-H522 13.7 µM | NCI/ADR-RES 15.2 µM | OVCAR-3 24.9 µM | OVCAR-4 33.4 µM | OVCAR-5 19.5 µM | OVCAR-8 29.2 µM | PC-3 20.8 µM | RPMI-8226 12.8 µM | SF-268 46.6 µM | SF-295 14.8 µM | SF-539 23.6 µM | SK-MEL-28 15.6 µM | SK-MEL-2 18 µM | SK-MEL-5 12.3 µM | SK-OV-3 25.5 µM | SN12C 26.1 µM | SNB-19 33.7 µM | SNB-75 5.97 µM | SR 6.14 µM | SW-620 18 µM | T47D 14.5 µM | TK-10 11.8 µM | U-251 16.1 µM | UACC-257 13.2 µM | UACC-62 10.9 µM | UO-31 11.5 µM

CC(C)=CCC[C@@H](C)c1c2nc3ccccc3[nH]c-2c(C)c(=O)c1O
0.236 µM: HCT-15
inactive: 786-0 1.75 µM | A498 2.12 µM | A549 2.37 µM | BT-549 2.63 µM | CAKI-1 1.14 µM | COLO 205 5.65 µM | DU-145 1.61 µM | EKVX 2.7 µM | HCC 2998 5.45 µM | HCT-116 1.36 µM | HOP-62 1.19 µM | HOP-92 1.41 µM | HT-29 5.32 µM | Hs-578T 2.28 µM | IGROV-1 2.07 µM | K562 1.41 µM | KM12 2.45 µM | LOX IMVI 1.75 µM | M14 1.44 µM | MCF7 2.18 µM | MDA-MB-231 1.73 µM | MDA-MB-435 2.73 µM | MDA-N 2.09 µM | MOLT-4 1.44 µM | Malme-3M 1.58 µM | NCI-H226 1.4 µM | NCI-H23 1.89 µM | OVCAR-4 2.88 µM | OVCAR-5 3.52 µM | OVCAR-8 1.71 µM | PC-3 3.32 µM | RPMI-8226 8.73 µM | RXF 393 1.14 µM | SF-539 2.08 µM | SK-MEL-28 4.38 µM | SK-MEL-2 1.59 µM | SK-MEL-5 1.63 µM | SK-OV-3 2.15 µM | SN12C 1.24 µM | SNB-19 2.5 µM | SNB-75 1.71 µM | SR 3.41 µM | SW-620 3.13 µM | T47D 1.91 µM | TK-10 2.58 µM | U-251 1.6 µM | UACC-257 2.37 µM
active: ACHN 0.568 µM | CCRF-CEM 0.27 µM | HL-60 0.383 µM | NCI-H460 0.671 µM | NCI/ADR-RES 0.771 µM | OVCAR-3 0.363 µM | SF-268 0.906 µM | SF-295 0.946 µM | UACC-62 1.09 µM | UO-31 0.714 µM

O/N=C\c1cc(O)c(O)c(/C=N/O)c1
inactive: A498 69.3 µM | A549 25.2 µM | ACHN 24.2 µM | BT-549 79.1 µM | CAKI-1 28.6 µM | CCRF-CEM 7.66 µM | COLO 205 34.4 µM | DU-145 31.6 µM | EKVX 34.8 µM | HCT-116 33.8 µM | HL-60 14.1 µM | HOP-62 29.4 µM | HOP-92 49.9 µM | HT-29 59.3 µM | Hs-578T 23.9 µM | IGROV-1 41.4 µM | K562 36 µM | KM12 38.4 µM | LOX IMVI 47.8 µM | M14 27.5 µM | MCF7 35.5 µM | MDA-MB-231 56.5 µM | MDA-MB-435 38.8 µM | MDA-N 47.9 µM | MOLT-4 21.4 µM | Malme-3M > 100 µM | NCI-H226 32.9 µM | NCI-H23 71 µM | NCI-H460 27.9 µM | NCI-H522 8.73 µM | NCI/ADR-RES 32 µM | OVCAR-3 20.6 µM | OVCAR-4 52 µM | OVCAR-5 96.2 µM | OVCAR-8 29 µM | PC-3 33.3 µM | RPMI-8226 11.8 µM | RXF 393 25.6 µM | SF-268 15.2 µM | SF-295 55.1 µM | SF-539 34.4 µM | SK-MEL-28 > 100 µM | SK-MEL-2 67.9 µM | SK-MEL-5 33.2 µM | SK-OV-3 33.7 µM | SN12C 27.2 µM | SNB-19 89.5 µM | SNB-75 > 100 µM | SR 11 µM | SW-620 39.9 µM | T47D 36.1 µM | TK-10 63.4 µM | U-251 39 µM | UACC-257 > 100 µM | UACC-62 38.5 µM | UO-31 16 µM
34.9 µM: HCT-15
